Source: patent US20130267551A1, “SUBSTITUTED HYDROGENATED THIENO-PYRROLO[3,2-C]PYRIDINE, LIGANDS, A PHARMACEUTICAL COMPOSITION AND A METHOD FOR USING THE ABOVE” (ALLA CHEM, LLC, priority 2010, published 2013)
Where a name gives a salt, the structure may show the parent alone. Read-outs that look alike come from different tables or passages of the source.

Legend:
Serotoninergic 5-HT7 = Serotoninergic 5-HT7 (Homo sapiens, UniProt P34969); assay: competitive radioligand binding, Serotoninergic 5-HT7; settings: compound concentration of 1 μM; read-out: radio-labelled ligand displacement, Serotoninergic 5-HT7
Chain of Serotoninergic 5-HT7 (P34969 whole entry): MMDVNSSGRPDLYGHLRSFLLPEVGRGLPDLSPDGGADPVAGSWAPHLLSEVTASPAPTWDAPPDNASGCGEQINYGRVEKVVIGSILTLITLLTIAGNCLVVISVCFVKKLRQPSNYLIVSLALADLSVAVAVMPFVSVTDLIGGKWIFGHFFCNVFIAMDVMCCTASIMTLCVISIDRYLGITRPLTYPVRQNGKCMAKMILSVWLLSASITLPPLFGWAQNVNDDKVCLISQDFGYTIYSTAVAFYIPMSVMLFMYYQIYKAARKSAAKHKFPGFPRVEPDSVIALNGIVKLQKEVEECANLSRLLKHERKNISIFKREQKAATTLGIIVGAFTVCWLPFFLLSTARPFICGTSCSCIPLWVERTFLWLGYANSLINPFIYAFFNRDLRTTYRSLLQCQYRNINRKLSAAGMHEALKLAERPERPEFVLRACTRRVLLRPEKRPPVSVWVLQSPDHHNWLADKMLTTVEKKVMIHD
Method: (§1) Profiles of pharmacological activity of thieno-pyrrolo[3,2-c]pyridines of the general formula 1. Biological activity test of compounds of the general formula 1 was carried out in the setting of competitive radioligand binding [I. Okun, S. Tkachenko, A. Khvat, et al., Current Alzheimer Research, 7(2), 97-112 (2010)], using a wide range of therapeutic targets including G-protein coupled receptors (GPCR), ion channels and neuromediator transporters. The tested activity was determined by quantitative measurement of radio-labelled ligand displacement by tested compounds of the general formula 1 at their concentration of 1 μM.

Dopaminergic D2S = Dopaminergic D2S (Homo sapiens, UniProt P14416); assay: competitive radioligand binding, Dopaminergic D2S; settings: compound concentration of 1 μM; read-out: radio-labelled ligand displacement, Dopaminergic D2S
Chain of Dopaminergic D2S (P14416 1-414 isoform P14416-2): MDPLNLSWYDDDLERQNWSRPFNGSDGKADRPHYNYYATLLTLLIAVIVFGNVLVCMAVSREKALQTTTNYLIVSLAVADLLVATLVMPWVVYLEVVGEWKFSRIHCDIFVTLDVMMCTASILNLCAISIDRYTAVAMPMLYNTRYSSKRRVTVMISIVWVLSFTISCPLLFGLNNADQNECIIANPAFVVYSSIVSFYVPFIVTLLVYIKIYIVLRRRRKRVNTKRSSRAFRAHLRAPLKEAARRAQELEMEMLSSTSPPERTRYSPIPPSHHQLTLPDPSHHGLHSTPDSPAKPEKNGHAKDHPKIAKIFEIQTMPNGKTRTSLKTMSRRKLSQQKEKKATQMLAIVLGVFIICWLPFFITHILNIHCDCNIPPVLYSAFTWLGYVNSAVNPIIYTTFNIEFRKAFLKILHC
Method: as §1

Histaminergic H3 = Histaminergic H3 (Homo sapiens, UniProt Q9Y5N1); assay: competitive radioligand binding, Histaminergic H3; settings: compound concentration of 1 μM; read-out: radio-labelled ligand displacement, Histaminergic H3
Chain of Histaminergic H3 (Q9Y5N1 whole entry): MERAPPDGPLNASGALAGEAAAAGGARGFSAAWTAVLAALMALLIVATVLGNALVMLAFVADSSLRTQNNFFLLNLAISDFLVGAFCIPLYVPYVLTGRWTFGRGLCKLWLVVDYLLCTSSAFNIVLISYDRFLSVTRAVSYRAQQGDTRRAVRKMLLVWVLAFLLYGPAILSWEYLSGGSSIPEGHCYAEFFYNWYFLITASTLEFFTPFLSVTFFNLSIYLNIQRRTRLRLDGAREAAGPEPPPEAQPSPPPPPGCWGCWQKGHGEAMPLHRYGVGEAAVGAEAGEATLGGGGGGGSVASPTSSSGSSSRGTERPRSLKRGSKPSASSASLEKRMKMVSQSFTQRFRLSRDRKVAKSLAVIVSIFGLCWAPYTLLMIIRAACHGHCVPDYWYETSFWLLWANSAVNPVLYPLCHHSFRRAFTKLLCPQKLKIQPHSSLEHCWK
Method: as §1

Serotoninergic 5-HT2A = Serotoninergic 5-HT2A (Homo sapiens, UniProt P28223); assay: competitive radioligand binding, Serotoninergic 5-HT2A; settings: read-out: radio-labelled ligand displacement, Serotoninergic 5-HT2A
Chain of Serotoninergic 5-HT2A (P28223 whole entry): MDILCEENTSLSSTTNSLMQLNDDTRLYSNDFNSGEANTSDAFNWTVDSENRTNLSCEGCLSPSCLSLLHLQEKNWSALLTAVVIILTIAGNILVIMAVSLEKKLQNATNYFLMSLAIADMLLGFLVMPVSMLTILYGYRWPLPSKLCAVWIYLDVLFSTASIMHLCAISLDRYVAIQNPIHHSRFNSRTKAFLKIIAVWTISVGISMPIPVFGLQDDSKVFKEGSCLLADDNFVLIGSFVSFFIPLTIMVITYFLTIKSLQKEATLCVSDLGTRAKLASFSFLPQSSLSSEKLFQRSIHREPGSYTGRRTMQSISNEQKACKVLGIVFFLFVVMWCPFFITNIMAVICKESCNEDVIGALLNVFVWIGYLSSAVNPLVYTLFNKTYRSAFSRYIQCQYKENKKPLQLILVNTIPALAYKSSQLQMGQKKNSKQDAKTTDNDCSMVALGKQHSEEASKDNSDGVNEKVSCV
Method: as §1

Serotoninergic 5-HT1A = target: T1, Serotoninergic 5-HT1A (Homo sapiens, UniProt P08908); assay: competitive radioligand binding, Serotoninergic 5-HT1A; settings: compound concentration of 1 μM; read-out: radio-labelled ligand displacement, Serotoninergic 5-HT1A
T1 sequence (P08908 1-422): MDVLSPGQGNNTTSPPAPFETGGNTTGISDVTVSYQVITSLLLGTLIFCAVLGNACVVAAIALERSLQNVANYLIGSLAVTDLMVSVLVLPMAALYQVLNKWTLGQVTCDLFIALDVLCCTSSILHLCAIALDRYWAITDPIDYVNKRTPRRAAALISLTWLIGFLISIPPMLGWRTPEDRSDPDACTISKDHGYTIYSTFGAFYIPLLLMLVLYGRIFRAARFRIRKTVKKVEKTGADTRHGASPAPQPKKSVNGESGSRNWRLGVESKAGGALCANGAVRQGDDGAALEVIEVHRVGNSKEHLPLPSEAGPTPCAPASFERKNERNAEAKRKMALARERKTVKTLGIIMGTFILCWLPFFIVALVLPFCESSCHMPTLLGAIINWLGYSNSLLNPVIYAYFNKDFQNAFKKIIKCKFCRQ
Method: as §1

Serotoninergic 5-HT2B = Serotoninergic 5-HT2B (Homo sapiens, UniProt P41595); assay: competitive radioligand binding, Serotoninergic 5-HT2B; settings: read-out: radio-labelled ligand displacement, Serotoninergic 5-HT2B
Chain of Serotoninergic 5-HT2B (P41595 whole entry): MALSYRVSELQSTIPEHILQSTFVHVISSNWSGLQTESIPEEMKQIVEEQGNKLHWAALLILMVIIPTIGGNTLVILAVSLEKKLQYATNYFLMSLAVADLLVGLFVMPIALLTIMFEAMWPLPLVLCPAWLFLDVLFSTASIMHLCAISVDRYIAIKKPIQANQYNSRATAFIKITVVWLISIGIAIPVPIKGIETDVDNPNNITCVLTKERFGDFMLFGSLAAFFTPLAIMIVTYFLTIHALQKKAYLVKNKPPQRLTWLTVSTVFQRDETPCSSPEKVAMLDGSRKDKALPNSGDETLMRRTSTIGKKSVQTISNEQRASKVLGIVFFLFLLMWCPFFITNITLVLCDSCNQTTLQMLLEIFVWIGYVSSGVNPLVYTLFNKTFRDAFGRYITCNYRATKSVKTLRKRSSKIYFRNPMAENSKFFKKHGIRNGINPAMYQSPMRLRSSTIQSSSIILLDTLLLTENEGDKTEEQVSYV
Method: as §1

Serotoninergic 5-HT1B = assay: competitive radioligand binding, Serotoninergic 5-HT1B; settings: compound concentration of 1 μM
Method: as §1

Serotoninergic 5-HT2C = target: T2, Serotoninergic 5-HT2C (Homo sapiens, UniProt P28335); assay: competitive radioligand binding, Serotoninergic 5-HT2C; settings: read-out: radio-labelled ligand displacement, Serotoninergic 5-HT2C
T2 sequence (P28335 33-458): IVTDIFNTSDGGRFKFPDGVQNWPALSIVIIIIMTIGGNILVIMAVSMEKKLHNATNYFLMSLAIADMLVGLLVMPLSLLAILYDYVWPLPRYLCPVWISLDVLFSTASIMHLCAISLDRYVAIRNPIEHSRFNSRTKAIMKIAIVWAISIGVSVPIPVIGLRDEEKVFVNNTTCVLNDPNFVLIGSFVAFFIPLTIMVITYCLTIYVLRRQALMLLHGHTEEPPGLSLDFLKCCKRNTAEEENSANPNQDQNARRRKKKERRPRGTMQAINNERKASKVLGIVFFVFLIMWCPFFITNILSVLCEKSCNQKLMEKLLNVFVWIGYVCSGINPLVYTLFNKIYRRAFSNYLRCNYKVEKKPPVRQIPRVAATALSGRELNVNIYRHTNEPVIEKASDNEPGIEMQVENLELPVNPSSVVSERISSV
Method: as §1

Adrenergic α1A = assay: competitive radioligand binding, Adrenergic α1A; settings: compound concentration of 1 μM
Method: as §1

Adrenergic α2A = target: T3, Adrenergic α2A (Homo sapiens, UniProt P08913); assay: competitive radioligand binding, Adrenergic α2A; settings: read-out: radio-labelled ligand displacement, Adrenergic α2A
T3 sequence (P08913 1-465): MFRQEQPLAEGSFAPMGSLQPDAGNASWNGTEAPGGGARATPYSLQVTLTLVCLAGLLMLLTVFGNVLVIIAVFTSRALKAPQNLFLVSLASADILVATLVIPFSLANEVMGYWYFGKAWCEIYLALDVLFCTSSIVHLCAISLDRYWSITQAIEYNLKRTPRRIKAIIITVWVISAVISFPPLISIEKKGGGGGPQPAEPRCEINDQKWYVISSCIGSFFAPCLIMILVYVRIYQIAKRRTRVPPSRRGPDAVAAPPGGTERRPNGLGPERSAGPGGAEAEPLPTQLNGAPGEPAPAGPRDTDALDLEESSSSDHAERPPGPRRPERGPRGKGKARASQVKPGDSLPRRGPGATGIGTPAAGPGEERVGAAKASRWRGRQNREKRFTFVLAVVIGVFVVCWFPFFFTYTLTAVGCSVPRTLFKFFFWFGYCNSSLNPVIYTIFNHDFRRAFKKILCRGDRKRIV
Method: as §1

Dopaminergic D2L = Dopaminergic D2L (Homo sapiens, UniProt P14416); assay: competitive radioligand binding, Dopaminergic D2L; settings: compound concentration of 1 μM; read-out: radio-labelled ligand displacement, Dopaminergic D2L
Chain of Dopaminergic D2L (P14416 whole entry): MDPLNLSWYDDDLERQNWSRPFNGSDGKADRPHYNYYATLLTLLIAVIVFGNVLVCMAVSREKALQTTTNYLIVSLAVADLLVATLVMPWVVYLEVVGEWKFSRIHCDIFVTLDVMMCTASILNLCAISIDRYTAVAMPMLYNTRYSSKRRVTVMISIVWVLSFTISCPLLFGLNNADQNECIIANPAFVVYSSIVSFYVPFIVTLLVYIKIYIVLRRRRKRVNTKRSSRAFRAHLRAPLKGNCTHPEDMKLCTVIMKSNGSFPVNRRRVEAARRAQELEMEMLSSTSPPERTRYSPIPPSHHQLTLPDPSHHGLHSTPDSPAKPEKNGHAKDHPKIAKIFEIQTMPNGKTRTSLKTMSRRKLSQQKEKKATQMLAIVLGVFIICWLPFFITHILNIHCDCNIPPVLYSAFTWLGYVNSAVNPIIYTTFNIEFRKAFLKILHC
Method: as §1

Dopaminergic D1 = Dopaminergic D1 (Homo sapiens, UniProt P21728); assay: competitive radioligand binding, Dopaminergic D1; settings: compound concentration of 1 μM; read-out: radio-labelled ligand displacement, Dopaminergic D1
Chain of Dopaminergic D1 (P21728 whole entry): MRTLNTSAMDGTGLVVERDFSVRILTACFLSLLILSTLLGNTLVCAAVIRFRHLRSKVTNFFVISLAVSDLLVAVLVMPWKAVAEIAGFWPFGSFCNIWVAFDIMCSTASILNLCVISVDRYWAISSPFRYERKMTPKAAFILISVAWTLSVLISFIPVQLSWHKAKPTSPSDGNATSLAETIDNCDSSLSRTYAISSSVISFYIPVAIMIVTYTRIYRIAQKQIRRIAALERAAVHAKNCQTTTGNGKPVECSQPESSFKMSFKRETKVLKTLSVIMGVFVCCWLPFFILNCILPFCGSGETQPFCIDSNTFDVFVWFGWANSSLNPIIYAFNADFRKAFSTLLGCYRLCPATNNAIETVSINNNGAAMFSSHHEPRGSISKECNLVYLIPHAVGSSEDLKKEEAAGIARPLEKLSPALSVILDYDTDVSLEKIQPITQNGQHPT
Method: as §1

Serotoninergic 5-HT6 = Serotoninergic 5-HT6 (Homo sapiens, UniProt P50406); assay: competitive radioligand binding, Serotoninergic 5-HT6; settings: compound concentration of 1 μM; read-out: radio-labelled ligand displacement, Serotoninergic 5-HT6
Chain of Serotoninergic 5-HT6 (P50406 whole entry): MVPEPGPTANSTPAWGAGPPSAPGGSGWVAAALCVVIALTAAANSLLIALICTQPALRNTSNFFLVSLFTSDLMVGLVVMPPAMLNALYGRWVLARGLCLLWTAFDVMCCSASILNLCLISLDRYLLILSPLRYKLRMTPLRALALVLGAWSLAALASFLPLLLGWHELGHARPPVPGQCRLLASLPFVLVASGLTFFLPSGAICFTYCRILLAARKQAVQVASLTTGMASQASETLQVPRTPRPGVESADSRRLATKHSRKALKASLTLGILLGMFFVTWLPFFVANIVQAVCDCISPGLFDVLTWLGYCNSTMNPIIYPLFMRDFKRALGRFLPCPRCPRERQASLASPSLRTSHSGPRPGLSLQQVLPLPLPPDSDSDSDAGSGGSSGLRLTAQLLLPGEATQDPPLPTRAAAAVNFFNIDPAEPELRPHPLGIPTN
Method: as §1

Histaminergic H1 = Histaminergic H1 (Homo sapiens, UniProt P35367); assay: competitive radioligand binding, Histaminergic H1; settings: compound concentration of 1 μM; read-out: radio-labelled ligand displacement, Histaminergic H1
Chain of Histaminergic H1 (P35367 whole entry): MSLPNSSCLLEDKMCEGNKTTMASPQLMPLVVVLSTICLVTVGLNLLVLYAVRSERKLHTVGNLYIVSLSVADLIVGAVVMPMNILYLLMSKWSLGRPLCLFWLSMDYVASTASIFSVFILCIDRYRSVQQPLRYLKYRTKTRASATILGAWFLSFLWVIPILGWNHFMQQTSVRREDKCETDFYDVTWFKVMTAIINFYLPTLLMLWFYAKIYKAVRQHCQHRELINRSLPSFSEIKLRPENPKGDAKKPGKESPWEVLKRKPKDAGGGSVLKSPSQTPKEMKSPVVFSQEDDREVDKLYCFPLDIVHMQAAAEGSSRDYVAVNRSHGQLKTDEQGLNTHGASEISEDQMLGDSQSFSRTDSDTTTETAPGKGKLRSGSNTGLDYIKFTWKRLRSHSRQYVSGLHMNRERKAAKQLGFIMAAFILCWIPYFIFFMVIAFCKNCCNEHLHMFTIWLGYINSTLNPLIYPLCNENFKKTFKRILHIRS
Method: as §1

SMILES | inhibition at 1 µM (Serotoninergic 5-HT7) [%] | inhibition at 1 µM (Dopaminergic D2S) [%] | inhibition at 1 µM (Histaminergic H3) [%] | inhibition at 1 µM (Serotoninergic 5-HT2A) [%] | inhibition at 1 µM (Serotoninergic 5-HT1A) [%] | inhibition at 1 µM (Serotoninergic 5-HT2B; compound concentration of 1 μM) [%] | radio-labelled ligand displacement, Serotoninergic 5-HT1B (Serotoninergic 5-HT1B) [%] | inhibition at 1 µM (Serotoninergic 5-HT2C; compound concentration of 1 μM) [%] | radio-labelled ligand displacement, Adrenergic α1A (Adrenergic α1A) [%] | inhibition at 1 µM (Adrenergic α2A; compound concentration of 1 μM) [%] | inhibition at 1 µM (Dopaminergic D2L) [%] | inhibition at 1 µM (Dopaminergic D1) [%] | inhibition at 1 µM (Serotoninergic 5-HT6) [%] | inhibition at 1 µM (Histaminergic H1) [%] | inhibition at 1 µM (Serotoninergic 5-HT2B) [%] | inhibition at 1 µM (Serotoninergic 5-HT2C) [%] | inhibition at 1 µM (Adrenergic α2A) [%]
Cc1cc2c(s1)c1c(n2-c2cccc(F)c2)CCN(C)C1 [2.4(3)•HCl, 2,7-dimethyl-4-(3-fluorophenyl)-5,6,7,8-tetrahydro-4H-thieno[2′,3′:4,5]pyrrolo[3,2-c]pyridine] | 43 | 3 | 1 | 41 | 3 | 39 | 5 | 33 | 17 | 14 | 4 | 5 | 26 | 38 | – | – | –
Cc1cc2c(s1)c1c(n2Cc2ccccc2)CCN(C)C1.Cl [2.5(1)•HCl, 4-Benzyl-2,7-dimethyl-5,6,7,8-tetrahydro-4H-thieno[2′,3′:4,5]pyrrolo[3,2-c]pyridine hydrochloride] | 92 | -6 | -4 | 93 | 3 | – | 6 | – | 42 | – | 8 | 5 | 55 | 96 | 91 | 84 | 34
Cc1ccc(Cn2c3c(c4sc(Cl)cc42)C(C)N(C)C(C)C3)cn1 (stereo not shown) [2.5(4)•HCl, 4-(6-methylpyridin-3-ylmethyl)-6,7,8-trimethyl-2-chloro-5,6,7,8-tetrahydro-4H-thieno[2′,3′:4,5]pyrrolo[3,2-c]pyridine] | 87 | 17 | 9 | 91 | 35 | 78 | 28 | 91 | 51 | 42 | 11 | 3 | 85 | 70 | – | – | –
Cc1cc2c(s1)c1c(n2CCc2ccccc2)CCN(C)C1.Cl [2.6(1)•HCl, 2,7-Dimethyl-4-(2-phenylethyl)-5,6,7,8-tetrahydro-4H-thieno[2′,3′:4,5]pyrrolo[3,2-c]pyridine hydrochloride] | 98 | 73 | -15 | 99 | 16 | – | 18 | – | 83 | – | 76 | 15 | 98 | 97 | 79 | 89 | 80
CC1Cc2c(c3sc(Cl)cc3n2C#Cc2cccc(F)c2)C(C)N1C (stereo not shown) [2.10(3)•HCl, 6,7,8-trimethyl-4-(3-fluorophenyl)ethynyl-2-chloro-5,6,7,8-tetrahydro-4H-thieno[2′,3′:4,5]pyrrolo[3,2-c]pyridine] | 33 | 31 | -10 | 43 | 6 | 39 | 9 | 31 | 21 | 17 | 20 | 4 | 35 | 65 | – | – | –
Cc1ccc(CCCn2c3c(c4scc(Cl)c42)CN(C)CC3)cn1 [2.12(5)•HCl, 7-methyl-4-[3-(6-methylpyridin-3-yl)propyl]-3-chloro-5,6,7,8-tetrahydro-4H-thieno[2′,3′:4,5]pyrrolo[3,2-c]pyridine] | 99 | 89 | 12 | 99 | 57 | 95 | 62 | 99 | 98 | 101 | 87 | 75 | 100 | 99 | – | – | –
Cc1cc2c3c(n(Cc4ccccc4)c2s1)CCN(C)C3.Cl [3.5(1)•HCl, 8-Benzyl-2,5-dimethyl-5,6,7,8-tetrahydro-4H-thieno[3′,2′:4,5]pyrrolo[3,2-c]pyridine hydrochloride] | 95 | 23 | 18 | 100 | 42 | – | 10 | – | 77 | – | 14 | 5 | 85 | 96 | 90 | 97 | 64
Cc1cc2c3c(n(CCc4ccccc4)c2s1)CCN(C)C3.Cl [3.6(1)•HCl, 2,5-Dimethyl-8-(2-phenylethyl)-5,6,7,8-tetrahydro-4H-thieno[3′,2′:4,5]pyrrolo[3,2-c]pyridine hydrochloride] | 99 | 86 | -17 | 101 | 48 | – | 47 | – | 97 | – | 87 | 70 | 103 | 98 | 92 | 99 | 100
